Reference: patent US8389503B2, “Steroidal antitubercular compounds” (priority 2011, dated 2013)
Converted amounts (≈) assume the structure as drawn.

Assays:
[1] = tested on: Mycobacterium tuberculosis H37Rv (ATCC 27294); assay: Primary screen (dose response), Microplate Alamar Blue Assay (MABA), Level-I antituberculosis assay; format: cell-based; settings: M. tuberculosis H37Rv, BACTEC 12B medium, concentration reducing fluorescence 90% relative to controls
Method: Primary Screen (Dose Response): Determination of a 90% Inhibitory Concentration (IC90). The initial screen is conducted against Mycobacterium tuberculosis H37Rv (ATCC 27294) in BACTEC 12B medium using the Microplate Alamar Blue Assay (MABA). Compounds are tested in ten 2-fold dilutions, typically from 100 μg/mL to 0.19 μg/mL. The IC90 is defined as the concentration effecting a reduction in fluorescence of 90% relative to controls. This value is determined from the dose-response curve using a curve-fitting program. Any IC90 value of ≦10 μg/mL is considered “Active” for antitubercular activity.

CCCCCCOC(=O)c1ccc(OC2CC[C@@]3(C)C(=CC[C@H]4[C@@H]5CC[C@H]([C@H](C)C=C[C@@H](CC)C(C)C)[C@@]5(C)CC[C@@H]43)C2)cc1 (some centres unmarked) [Compound I, n-hexyl-p-stigmasteryloxy-benzoate]
IC90 (90% inhibitory concentration) [1]: 6.25 µg/mL (≈ 10.1 µM)
CC50 (mammalian cell cytotoxicity) (VERO cells): 79.59 µg/mL (≈ 129 µM)
